In US10842779B2, “Heterocyclic compounds and their use in preventing or treating bacterial infections” (priority 2015, dated 2020):
pIC50: −log10 of the molar value. Where two headings read alike, the source gives them in different places.

How the values were obtained:
[1] = target: T1, CTX-M-15 (Escherichia coli, UniProt Q9EXV5); test: β-Lactamase inhibitory activity, nitrocefin hydrolysis; assay type: biochemical; conditions: class (A); 30 min pre-incubation
T1 construct: made in house; host or cells: E. coli

[2] = target: T2, TEM-1 (Escherichia coli, UniProt P62593); test: as above; assay type: biochemical; conditions: class (A); 30 min pre-incubation
T2 construct: made in house; host or cells: E. coli

[3] = target: CMY-37 (Citrobacter freundii); test: as above; assay type: biochemical
[4] = target: AmpC (P99) (Enterobacter cloacae, UniProt P05364); test: biochemical
Protocol: (§1) Method 1: β-Lactamase Inhibitory Activity, Determination of IC50 (Table 1)
(§2) Enzyme activity was monitored by spectrophotometric measurement of nitrocefin (NCF-TOKU-E, N005) hydrolysis at 485 nm, at room temperature and in assay buffer A: 100 mM Phosphate pH7, 2% glycerol and 0.1 mg/mL Bovine serum albumin (Sigma, B4287). Enzymes were cloned in E. coli expression vector, expressed and purified in house using classical procedures. To a transparent polystyrene plate (Corning, 3628) were added in each well 5 μL DMSO or inhibitor dilutions in DMSO and 80 μL enzyme in buffer A. Plates were immediately read at 485 nm in a microplate spectrophotometer (BioTek, PowerWave HT) to enable background subtraction. After 30 min of pre-incubation at room temperature, 15 μL of NCF (200 μM final) were finally added in each well. Final enzyme concentrations were 0.1 nM (TEM-1), 0.075 nM (SHV-1), 0.4 nM (CTX-M-15), 1 nM (KPC-2), 0.2 nM (P99 AmpC), 0.2 nM (CMY-37), 0.4 nM (AmpC P. aeruginosa), 0.2 nM (OXA-1), 1.2 nM (OXA-11), 0.4 nM (OXA-15) and 0.3 nM (OXA-48). After 20 min incubation at room temperature, plates were once again read at 485 nm. Enzyme activity was obtained by subtracting the final signal by the background, and was converted to enzyme inhibition using non inhibited wells. IC50 curves were fitted to a classical Langmuir equilibrium model with Hill slope using XLFIT (IDBS).

[5] = target: AmpC (PAE) (Pseudomonas aeruginosa, UniProt P24735); test: biochemical
Protocol: as §1, §2

[6] = target: T3, OXA-48 (Klebsiella pneumoniae, UniProt Q6XEC0); test: β-Lactamase inhibitory activity, nitrocefin hydrolysis; assay type: biochemical; conditions: class (D); 30 min pre-incubation
T3 construct: made in house; host or cells: E. coli

[7] = target: T4, OXA-15 (Pseudomonas aeruginosa, UniProt Q51574); test: as above; assay type: biochemical
T4 construct: made in house; host or cells: E. coli

[8] = tested on: C. murliniae; test: Synergy with ceftazidime: MIC of ceftazidime at fixed concentration of compound; assay type: cell-based; conditions: CMU 210102; beta-lactamases VIM-4; read-out: MIC of CAZ + compound (4 μg/mL)
Protocol: (§3) Method 2: MIC of Compounds and Synergy with Ceftazidime Against Bacterial Isolates (Table 2 and 3)
(§4) Compounds of the present invention were assessed against genotyped bacterial strains alone or in combination with the β-lactam ceftazidime. In the assays, MICs of said compounds, or of ceftazidime at fixed concentrations of said compounds were determined by the broth microdilution method according to the Clinical Laboratory Standards Institute (CLSI—M7-A7). Briefly, compounds alone according to the invention were prepared in DMSO and spotted (2 μL each) on sterile polystyrene plates (Corning, 3788). Compounds and ceftazidime dilutions were prepared in DMSO and spotted (1 μL each) on sterile polystyrene plates (Corning, 3788). Log phase bacterial suspensions were adjusted to a final density of 5×10^5 cfu/mL in cation-adjusted Mueller-Hinton broth (Beckton-Dickinson) and added to each well (98 μL). Microplates were incubated for 16-20 h at 35° C. in ambient air. The MIC of the compounds was defined as the lowest concentration of said compounds that prevented bacterial growth as read by visual inspection. The MIC of ceftazidime at each compound concentration was defined as the lowest concentration of ceftazidime that prevented bacterial growth as read by visual inspection.

[9] = tested on: E. cloacae; test: as above; assay type: cell-based; conditions: Enterobacter cloacae
Protocol: as §3, §4

[10] = tested on: K. pneumoniae; test: as above; assay type: cell-based; conditions: Klebsiella pneumoniae
Protocol: as §3, §4

[11] = tested on: P. mirabilis; test: as above; assay type: cell-based; conditions: Proteus mirabilis; PMI UFR82; beta-lactamases CMY-2; read-out: MIC of CAZ + compound (4 μg/mL)
Protocol: as §3, §4

[12] = tested on: E. aerogenes; test: as above; assay type: cell-based; conditions: Klebsiella aerogenes; EAE 200261; beta-lactamases TEM-x AmpC; read-out: MIC of CAZ + compound (4 μg/mL)
Protocol: as §3, §4

[13] = tested on: S. marcescens; test: as above; assay type: cell-based; conditions: Serratia marcescens; SMA UFR30; beta-lactamases OXA-405; read-out: MIC of CAZ + compound (4 μg/mL)
Protocol: as §3, §4

[14] = tested on: P. aeruginosa; test: as above; assay type: cell-based; conditions: Pseudomonas aeruginosa, read-out: MIC of CAZ + compound (4 μg/mL)
Protocol: as §3, §4

[15] = target: T5, KPC-2 (Klebsiella pneumoniae, UniProt Q9F663); test: β-Lactamase inhibitory activity, nitrocefin hydrolysis; assay type: biochemical; conditions: class (A); 30 min pre-incubation
T5 construct: made in house; host or cells: E. coli

[16] = target: T6, OXA-1 (Escherichia coli, UniProt P13661); test: as above; assay type: biochemical; conditions: class (D); 30 min pre-incubation
T6 construct: made in house; host or cells: E. coli

[17] = target: T7, OXA-11 (Pseudomonas aeruginosa, UniProt Q06778); test: as above; assay type: biochemical
T7 construct: made in house; host or cells: E. coli

[18] = target: T8, SHV-1 (Klebsiella pneumoniae, UniProt P0AD64); test: as above; assay type: biochemical
T8 construct: made in house; host or cells: E. coli

Question: O=C(O)C(F)(F)F.O=C1N2C[C@H](c3scnc3[C@H]2c2ncc[nH]2)N1OS(=O)(=O)[O-].[Na+] (relative stereo) [Example 1, Sodium and 2,2,2-trifluoroacetate [trans-7-(1H-imidazol-3-ium-2-yl)-9-oxo-3-thia-5,8,10-triaza-tricyclo[6.2.1.0^2,6]undeca-2(6),4-dien-10-yl]sulfate] was tested. Which pIC50 [1] did it give?
Answer: 8.57

Question: What about the pIC50 [2] of the same molecule?
Answer: 7.92

Question: What about the pIC50 [3] of the same molecule?
Answer: 9.20

Question: And the pIC50 [4]?
Answer: 9.43

Question: What about the pIC50 [5] of the same molecule?
Answer: 7.77

Question: What about the pIC50 [6] of the same molecule?
Answer: 8.08

Question: And the pIC50 [7]?
Answer: 6.57

Question: What about the MIC [8] of the same molecule?
Answer: < 0.25 µg/mL

Question: And the MIC ([9]; ECL 2185D, beta-lactamases OXA-163, read-out: MIC of CAZ + compound (4 μg/mL))?
Answer: 1 µg/mL

Question: And the MIC ([9]; ECL 190310, beta-lactamases AmpC, read-out: MIC of CAZ + compound (4 μg/mL))?
Answer: < 0.25 µg/mL

Question: And the MIC ([9]; ECL 200138, beta-lactamases AmpC, read-out: MIC of CAZ + compound (4 μg/mL))?
Answer: 8 µg/mL

Question: What about the MIC ([9]; ECL 260033, beta-lactamases AmpC, read-out: MIC of CAZ + compound (4 μg/mL)) of the same molecule?
Answer: 4 µg/mL

Question: What about the MIC ([9]; ECL 260323, beta-lactamases AmpC, read-out: MIC of CAZ + compound (4 μg/mL)) of the same molecule?
Answer: < 0.25 µg/mL

Question: And the MIC ([9]; ECL HAN, beta-lactamases OXA-35, read-out: MIC of CAZ + compound (4 μg/mL))?
Answer: 2 µg/mL

Question: What about the MIC ([9]; ECL NEM146383, beta-lactamases AmpC, read-out: MIC of CAZ + compound (4 μg/mL)) of the same molecule?
Answer: < 0.25 µg/mL

Question: What about the MIC ([9]; ECL P99, beta-lactamases AmpC, read-out: MIC of CAZ + compound (4 μg/mL)) of the same molecule?
Answer: < 0.25 µg/mL

Question: And the MIC ([9]; ECL UFR12, beta-lactamases CTX-M-9 OXA-48, read-out: MIC of CAZ + compound (4 μg/mL))?
Answer: < 0.25 µg/mL

Question: And the MIC ([9]; ECL UFR38, beta-lactamases CTX-M-15 NDM-1, read-out: MIC of CAZ + compound (4 μg/mL))?
Answer: < 0.25 µg/mL

Question: What about the MIC ([9]; ECL UFR51, beta-lactamases SHV-12 IMP-8, read-out: MIC of CAZ + compound (4 μg/mL)) of the same molecule?
Answer: < 0.25 µg/mL

Question: And the MIC ([9]; read-out: MIC of CAZ + compound (4 μg/mL), ECL UFR84, beta-lactamases TEM-1 AmpC OXA-1)?
Answer: ≤ 0.25 µg/mL

Question: And the MIC ([10]; BAA1898, read-out: MIC of CAZ + compound (4 μg/mL), KPN BAA-1898, beta-lactamases TEM-1, SHV-11, SHV-12 KPC-2)?
Answer: 0.5 µg/mL

Question: And the MIC ([10]; KPN 700603, beta-lactamases SHV-18 OXA-2, read-out: MIC of CAZ + compound (4 μg/mL))?
Answer: < 0.25 µg/mL

Question: What about the MIC ([10]; KPN LIB, beta-lactamases SHV-11 OXA-48, read-out: MIC of CAZ + compound (4 μg/mL)) of the same molecule?
Answer: < 0.25 µg/mL

Question: And the MIC ([10]; KPN UFR42, beta-lactamases SHV-2, CTX-M-15 OXA-1 OXA-181 NDM-1, read-out: MIC of CAZ + compound (4 μg/mL))?
Answer: < 0.25 µg/mL

Question: And the MIC ([10]; KPN UFR43, beta-lactamases SHV-11, CTX-M-15 CMY-2 OXA-1 NDM-1, read-out: MIC of CAZ + compound (4 μg/mL))?
Answer: ≤ 0.25 µg/mL

Question: And the MIC ([10]; KPN UFR77, beta-lactamases CMY-2, read-out: MIC of CAZ + compound (4 μg/mL))?
Answer: < 0.25 µg/mL

Question: What about the MIC ([10]; KPN UFR79, beta-lactamases DHA-1 OXA-1, read-out: MIC of CAZ + compound (4 μg/mL)) of the same molecule?
Answer: < 0.25 µg/mL

Question: And the MIC ([10]; KPN UFR80, beta-lactamases SHV-11 DHA-1 OXA-1, read-out: MIC of CAZ + compound (4 μg/mL))?
Answer: < 0.25 µg/mL

Question: What about the MIC ([10]; read-out: MIC of CAZ + compound (4 μg/mL), KPN 6299, beta-lactamases TEM-1, SHV-11 OXA-163) of the same molecule?
Answer: ≤ 0.125 µg/mL

Question: And the MIC ([10]; read-out: MIC of CAZ + compound (4 μg/mL), KPN 260252, beta-lactamases TEM-1, SHV-11 KPC-3)?
Answer: > 128 µg/mL

Question: What about the MIC [11] of the same molecule?
Answer: ≤ 0.25 µg/mL

Question: And the MIC [12]?
Answer: < 0.25 µg/mL

Question: And the MIC [13]?
Answer: < 0.25 µg/mL

Question: And the MIC ([14]; PAE CIP107051, beta-lactamases TEM-24)?
Answer: 8 µg/mL

Question: And the MIC ([14]; PAE MUS, beta-lactamases OXA-20 OXA-18)?
Answer: 8 µg/mL

Question: And the pIC50 [15]?
Answer: 8.38

Question: And the pIC50 [16]?
Answer: 6.72

Question: And the pIC50 [17]?
Answer: 6.39

Question: And the pIC50 [18]?
Answer: 8.26
